Reference: patent US7950396B2, “Treatment for otitis externa” (priority 2006, dated 2011)

Experiments:
[1] = tested on: E. fecalis; assay: Photodisinfection of E. fecalis biofilms in vitro (methylene blue plus Periowave laser); assay type: cell-based, Enterococcus fecalis; settings: methylene blue and low power laser
Description: (§1) Photodisinfection treatments using methods contemplated by the present invention have been tested against MRSA, Escherichia coli (E. coli), and Enterococcus fecalis (E. fecalis) in vitro and reached high levels of disinfection in within seconds to one minute. Photosensitizing composition comprising of methylene blue at various concentrations ranging from about 0.005 wt % to 0.1 wt % was applied to biofilms of MRSA, E. coli and E. fecalis for about ten seconds. These biofilms were then illuminated by a laser light system at a wavelength of about 665 nm to about 675 nm for a period from about 0 seconds to about 60 seconds (e.g., accumulated energy level of about 0 J/cm^2 to about 9 J/cm^2). The laser light system used was the Periowave™ system which includes a low-intensity laser with power at about 240 mW and the optical probe described in PCT Patent Publication No. WO2006115761.

[2] = tested on: MRSA; assay: Photodisinfection of MRSA biofilms in vitro (methylene blue plus Periowave laser); assay type: cell-based, Methicillin-resistant Staphylococcus aureus
Description: as §1

[3] = tested on: E. coli; assay: Photodisinfection of E. coli biofilms in vitro (methylene blue plus Periowave laser); assay type: cell-based, Escherichia coli
Description: as §1

[4] = tested on: MRSA; assay: SEM evaluation of MRSA biofilms after photodisinfection; assay type: cell-based, Methicillin-resistant Staphylococcus aureus; settings: about 0.1 wt % methylene blue, about 10 s contact, 665-675 nm for about 30 seconds, Periowave laser
Description: (§2) Biofilms heavily colonized with one to four layers of MRSA organisms were contacted with a photosensitizing composition comprising methylene blue at a concentration of about 0.1 wt % for about 10 seconds and then illuminated at a wavelength of about 665 nm to about 675 nm for a period from about 30 seconds using the Periowave™ laser. Thereafter, these biofilms and the controlled MRSA biofilms (e.g., no photodisinfection treatment) were incubated overnight in 0.9 wt % saline and then fixed in 10 wt % Formalin for scanning electron microscope (SEM) evaluation.

[5] = tested on: otitis externa; assay: Photodisinfection of otitis externa treatment site (Examples V to VII); assay type: in vivo
Description: A photosensitizing composition comprising of methylene blue at a concentration of about 0.1 wt % is applied to the otitis externa treatment site. Light at a wavelength range from about 650 nm to about 680 nm is applied to the photosensitizing composition located within the otitis externa treatment site for a period from about 6 minutes to about 10 minutes using a laser with power at about 80 mW. The otitis externa was ameliorated.
A photosensitizing composition comprising of methylene blue at a concentration range of from about 0.001 wt % to about 0.1 wt % is applied to the otitis externa treatment site. Light at a wavelength range from about 650 nm to about 680 nm is applied to the photosensitizing composition located within the treatment site for a period from about 1 minute to about 20 minutes using a laser with power at a range from about 50 mW to about 300 mW. The otitis externa was ameliorated.
A photosensitizing composition comprising of toluidine blue at a concentration range of from about 0.001% wt % to about 0.1 wt % is applied to the otitis externa treatment site. Light at a wavelength range from about 620 nm to about 650 nm is applied to the photosensitizing composition located within the otitis externa treatment site for a period from about 1 minute to about 20 minutes using a laser with power at a range from about 50 mW to about 300 mW. The otitis externa was ameliorated.
For Examples V to VII, it was shown that there is a general inverse relationship between (1) the photosensitizer concentration and (2) the photodisinfection treatment time and/or the amount of power required for the light source. For example, higher concentration of photosensitizer requires less treatment time and/or lower light source power. Conversely, lower concentration of photosensitizer requires longer treatment time and/or higher light source power. Also, less treatment time requires higher concentration of photosensitizer and/or higher light source power.

[6] = tested on: E. coli; assay: SEM evaluation of E. coli biofilms after photodisinfection; assay type: cell-based, Escherichia coli; settings: about 0.1 wt % methylene blue, about 10 s contact, 665-675 nm for about 30 seconds, Periowave laser
Description: as §2, with “to three” for “to four”, “of Escherichia coli (E. coli)” for “of MRSA”, “controlled E. coli” for “controlled MRSA”, “incubated for three hours” for “incubated overnight”, “in 0.9%” for “in 0.9 wt %”, “in 10%” for “in 10 wt %”

[7] = tested on: otitis externa; assay: Study on patients suffering otitis externa (photodisinfection, Periowave laser); assay type: in vivo, human
Description: A study was conducted on patients suffering otitis externa. During the study, a photosensitizing composition comprising of methylene blue at a concentration of about 0.01 wt % was applied using a cotton swab to the treatment site as shown in FIG. 37. Thereafter and referring to FIGS. 38-39, light at a wavelength range from about 665 nm to about 675 nm was applied to the photosensitizing composition located within the treatment site 64 for a period from about 3 minutes to about 5 minutes (3-5 repetitive one minute cycles) using the Periowave™ laser light system.

[8] = at least 0.02 wt % methylene blue, about 10 s contact, laser 665-675 nm for at least 15 seconds (at least 2.25 J/cm^2), 240 mW
[9] = methylene blue and low power laser

Row | SMILES | elimination of E. Fecalis by photodisinfection [1] | reduction of MRSA (logs) [2, 8] | elimination of MRSA by photodisinfection [2, 9] | reduction of E. coli (logs) [3, 8] | elimination of E. coli by photodisinfection [3, 9] | reduction of MRSA in SEM photograph vs controlled biofilm [4] | outcome of otitis externa ([5]; about 0.001 to 0.1 wt %, 650-680 nm for about 1 to 20 minutes, laser about 50 to 300 mW) | outcome of otitis externa ([5]; about 0.1 wt %, 650-680 nm for about 6 to 10 minutes, laser about 80 mW) | reduction of E. coli in SEM photograph vs controlled biofilm [6] | outcome of otitis externa, many patients ([7]; about 0.01 wt % methylene blue by cotton swab, 665-675 nm for about 3 to 5 minutes (3-5 one minute cycles)) | outcome of otitis externa, patients with severe otitis externa ([7]; same protocol, about 2 to about 5 additional treatments over about one to two weeks) | outcome of otitis externa ([5]; about 0.001 to 0.1 wt %, 620-650 nm for about 1 to 20 minutes, laser about 50 to 300 mW)
1 | CN(C)c1ccc2nc3ccc(=[N+](C)C)cc-3sc2c1 [methylene blue] | effectively eliminated | at least three logs | effectively eliminated | at least three logs | effectively eliminated | substantial reduction of MRSA | ameliorated | ameliorated | substantial reduction of E. coli | ameliorated | also ameliorated | 
2 | Cc1cc2nc3ccc(N(C)C)cc3[s+]c2cc1N.[Cl-] [toluidine blue] |  |  |  |  |  |  |  |  |  |  |  | ameliorated
